This is an account of results in US3943123A, “Novel beta-lactams and novel process” (Koninklijke Nederlandsche Gist-En Spiritusfabriek N.V., priority 1974, dated 1976).

Series [1] can be described thus: solubility in various organic solvents. Type of series: physicochemical. As to conditions: cis isomer, in words.
The next series deals with test organisms. The series can be described thus: anti-bacterial activity as determined by standard tests. Format: cell-based. As to conditions: in words. The text has this: Many of the β-lactams described here have anti-bacterial activity as determined by standards tests. […] The novel β-lactams of the invention are also useful intermediates for the preparation of complex substituted amino acids which can then be polymerized to form polymers. The amino acids are formed by 1,2-cleavage of the β-lactams with an alkali metal hydroxide or alkoxide such as sodium methoxide in a lower alkanol such as methanol to form the corresponding alkali metal salt of the resulting 3-aminopropionic acid which can be acidified to form the corresponding free amino acid.
(§1) A stock solution of the test compounds at a concentration of […] in 0.05 molar phosphate buffer solution at a pH of 6.5 was prepared and two-fold dilutions were made with sterile buffer. 1 cc quantities of each dilution were then incorporated into 19 cc of brain heart infusion agar in sterile petri dishes. The hardened surface was then inoculated with the test organisms and it was then incubated for 18 hours at 37°C. The minimum inhibitory concentration (MIC) which is the least amount of compound completely inhibiting the test organism is determined in mg/cc.

The test system of series [2] is Bacillus Subtilis ATCC 6633. The series can be described thus: MIC by two-fold agar dilution (brain heart infusion agar), Bacillus subtilis. Type of series: cell-based. The note with it: ATCC6633, 18 hours at 37°C, pH 6.5 buffer, read-out: minimum inhibitory concentration (MIC). The method, then:
as §1

The subject of series [3] is Staphylococcus Aureus A 321. Description: MIC by two-fold agar dilution (brain heart infusion agar), Staphylococcus aureus A 321. Type of series: cell-based. As to conditions: strain A 321, 18 hours at 37°C, pH 6.5 buffer, read-out: minimum inhibitory concentration (MIC). Here is the method: as §1
(In general: In agar dilution, organisms are placed on agar that contains the substance at set levels.)

The subject of series [4] is Staphylococcus Aureus A 355. Description: MIC by two-fold agar dilution (brain heart infusion agar), Staphylococcus aureus A 355. Type of series: cell-based. As to conditions: strain A 355, 18 hours at 37°C, pH 6.5 buffer, read-out: minimum inhibitory concentration (MIC). Here is the method: as §1
For series [5], the system named is Staphylococcus Aureus 2160'. Description: MIC by two-fold agar dilution (brain heart infusion agar), Staphylococcus aureus 2160'. As to conditions: strain 2160', 18 hours at 37°C, pH 6.5 buffer, read-out: minimum inhibitory concentration (MIC). Type of series: cell-based. The method, then: as §1

Structures are written as SMILES. Converted amounts (≈) assume the structure as drawn.

For the compound `O=C(O)c1ccc(N2C(=O)[C@@H](Oc3ccccc3)[C@H]2c2ccccc2O)cc1` (relative stereo) [cis-1-(p-carboxyphenyl)-3-phenoxy-4-(o-hydroxyphenyl)azetidin-2-one], in series [1], the “solubility in various organic solvents” value is “low solubility in various organic solvents”.

Turning to `COc1ccc(C2C(Oc3ccccc3)C(=O)N2c2ccc(C(=O)O)cc2)cc1` (stereo not drawn) [1-(p-carboxyphenyl)-3-phenoxy-4-(p-methoxyphenyl)-azetidin-2-one], the antibacterial activity result with test organisms was “outstanding for their antibacterial activity”.

Regarding `COc1ccc(N2C(=O)C(Oc3ccccc3)C2c2ccc(C(=O)O)cc2)cc1` (stereo not drawn) [1-(p-methoxyphenyl)-3-phenoxy-4-(p-carboxyphenyl)-azetidin-2-one], the MIC in series [2], in series [3], in series [4] and in series [5] was 100 mg/mL (≈ 257 mM) each time. Besides, the antibacterial activity result in the series on test organisms is “outstanding for their antibacterial activity”.

Take `O=C(O)c1ccc(N2C(=O)C(Oc3ccccc3)C2c2ccco2)cc1` (stereo not drawn) [1-p-carboxyphenyl-3-phenoxy-4-α-furyl-azetidin-2-one]: in series [2], the MIC was found to be 50 mg/mL (≈ 143 mM). Further, the antibacterial activity result in the series with test organisms is “outstanding for their antibacterial activity”.
